The values that follow come from paper PMC12040169 (PLOS Biology, 2025).

The viability is a read-out of living cells in per cent, often relative to untreated cells.

This data set in a line: in vitro. As to conditions: human, hela cells, % viability.

Structures are written as SMILES.

Turning to `Cc1cc(=O)oc2cc(NC(=S)NNC(=O)c3ccc4c(c3)c(C)c(C)n4Cc3ccccc3)ccc12` [CBK267138], the viability at 28.5 h, 10 µM was 89.6%.

For the compound `Cc1ccc2c(CC(=O)N(C)CCc3cn[nH]c3)coc2c1` [CBK283239], the viability at 28.5 h, 10 µM is 90.8%.

On to `COCCSc1ccccc1C(=O)Nc1ccc(S(N)(=O)=O)cc1` [CBK267530], for which the viability at 28.5 h, 10 µM is 83.2%.

Turning to `COc1ccc(CC(=O)N2CCC(c3cc4ncccc4[nH]3)CC2)cc1` [CBK283386], the viability at 28.5 h, 10 µM was determined as 84.3%.

With `CCC(C)NC(=O)c1ccccc1NS(=O)(=O)c1cc(C(=O)O)cs1` (stereo not shown) [CBK295652], the viability at 28.5 h, 10 µM turned out to be 108%.

Consider `Cc1cc(C(=O)N2CCn3cnnc3C2)c(C2CC2)o1` [CBK282059], for which the viability at 28.5 h, 10 µM was found to be 115%.

Consider `O=c1cc(O)c2c(=O)[nH]c(=O)n(-c3ccccc3)c2[nH]1` [CBK287907], for which the viability at 28.5 h, 10 µM turned out to be 88.2%.

With `CC(C)Cc1cc(CNC(=O)C(C)n2cc(Cl)cn2)on1` (stereo not shown) [CBK281524], the viability at 28.5 h, 10 µM was determined as 92.8%.

For the compound `Cc1c(F)cccc1CNCc1ccc(CNC(=O)OC(C)(C)C)cc1` [CBK056708], the viability at 28.5 h, 10 µM amounted to 103%.

Turning to `CC(C)S(=O)(=O)N1C2CCC(C2)[C@@H]1COc1ccc(F)cc1` (stereo partly shown) [CBK285292], the viability at 28.5 h, 10 µM came to 101%.

As for `Cc1ccc(NS(=O)(=O)c2ccc(OCC(=O)N3CCN(C)CC3)c(C)c2)cc1` [CBK267834], the viability at 28.5 h, 10 µM was 110%.

With `O=C(Cn1nnc2ccccc2c1=O)NCC(F)(F)F` [CBK304533], the viability at 28.5 h, 10 µM is 94.1%.

Turning to `S=C(NCc1ccc(-n2cccn2)cc1)NCC1CCCO1` (stereo not shown) [CBK267083], the viability at 28.5 h, 10 µM was determined as 96.7%.

As for `O=[N+]([O-])c1ccc(N/N=C/c2cnn(-c3ccccc3)c2)cc1` [CBK018746], the viability at 28.5 h, 10 µM stood at 94%.

As to `CCOCCN1C[C@@H](C(F)(F)F)[C@H](C(=O)O)C1` [CBK287033], the viability at 28.5 h, 10 µM was determined as 91.9%.

As to `O=C(c1nn2c(c1Br)NC(c1cccs1)CC2C(F)(F)F)N1CCCC1` (stereo not shown) [CBK307180], the viability at 28.5 h, 10 µM turned out to be 88.7%.

Turning to `O=C(COc1ccc(/C=C2\C(=O)NC(=O)N(c3ccc(O)cc3)C2=O)cc1Cl)Nc1ccccc1` [CBK265425], the viability at 28.5 h, 10 µM (bulk resorufin, single well) is 84.4%.

As for `O=C(Nc1ccc(N2CCNCC2)nc1)c1ccccc1` [CBK028277T], the viability at 28.5 h, 10 µM came to 114%.

Regarding `O=c1[nH]c(CN2CCN(c3ncccn3)CC2)nc2ccccc12` [CBK269918], the viability at 28.5 h, 10 µM stood at 98.3%.

As to `CC(C)c1ccc(C(C)NC(=O)Cn2cc(C(=O)NC3CCCCC3)ccc2=O)cc1` (stereo not shown) [CBK286097], the viability at 28.5 h, 10 µM came to 100%.

Regarding `CC1CCN(S(=O)(=O)c2ccc(NC(=O)COc3ccc([N+](=O)[O-])cc3)cc2)CC1` [CBK264994], the viability at 28.5 h, 10 µM was found to be 95.4%.

On to `CCCNS(=O)(=O)c1cc(C(=O)O)ccc1OC` [CBK287152], for which the viability at 28.5 h, 10 µM was determined as 98%.

Turning to `CC(C)n1ccnc1CNc1cccc(OCC(=O)N2CCCC2)c1` [CBK305377], the viability at 28.5 h, 10 µM was determined as 97%.

In the case of `COc1ccc(CCNC(=O)N2CCCC2C(=O)O)cc1` (stereo not shown) [CBK161386], the viability at 28.5 h, 10 µM is 116%.

`O=C(NCCc1cccs1)C(c1ccccc1)c1ccccc1` [CBK270275]: the viability at 28.5 h, 10 µM was 90.1%.

Turning to `CC(C)n1c(=O)n(CC(=O)N2CCc3ccccc32)c2cccnc21` [CBK283855], the viability at 28.5 h, 10 µM came out at 103%.

On to `COc1cccc(OCCCCCc2c(C)n[nH]c2C)c1` [CBK261805], for which the viability at 28.5 h, 10 µM came to 104%.

Take `N=C1/C(=C/c2ccc(-c3cccc([N+](=O)[O-])c3)o2)C(=O)N=C2SC(SCc3ccccc3)=NN12` [CBK265354]: the viability at 28.5 h, 10 µM was 88.5%.

Regarding `O=C(NCCc1ccccc1)NCCc1cccs1` [CBK045154], the viability at 28.5 h, 10 µM worked out at 114%.

Consider `Cc1ccn(-c2ccc(N3CCC(OC4CCCC4)CC3)nn2)n1` [CBK306301], for which the viability at 28.5 h, 10 µM is 96%.

As for `Cn1cc(-c2nc(C(=O)NC3CCCN(c4ncccn4)C3)cs2)cn1` (stereo not shown) [CBK305629], the viability at 28.5 h, 10 µM amounted to 77.7%.

On to `Cc1oc(NC(=O)CN2CCN(c3ccccc3Cl)CC2)c(C#N)c1C` [CBK305908], for which the viability at 28.5 h, 10 µM was determined as 84.7%.

As to `CN(C)CCn1c([C@@H]2CCCO2)cc2cccnc21` [CBK282288], the viability at 28.5 h, 10 µM was determined as 105%.

In the case of `Cn1ccnc1CN(Cc1ccccc1)C1CC(C)(C)NC(C)(C)C1` [CBK283177], the viability at 28.5 h, 10 µM stood at 93.2%.

Regarding `COc1cccc(CN2CCCC(NC(=O)c3cn4ccsc4n3)C2)c1` (stereo not shown) [CBK307204], the viability at 28.5 h, 10 µM came to 81.1%.

`O=C(C1CCN(S(=O)(=O)c2ccc3ccccc3c2)CC1)N1CCC(Cc2ccccc2)CC1` [CBK269558]: the viability at 28.5 h, 10 µM was determined as 83%.

For `CC(=O)Nc1nc(CN2CCOC(c3ccc(F)cc3)C2)cs1` (stereo not shown) [CBK305591], the viability at 28.5 h, 10 µM worked out at 98.5%.

Consider `c1ccc(COc2ccc3[nH]c4c(c3c2)CCNC42CCN(Cc3ccccc3-c3ccccc3)C2)cc1` (stereo not shown) [CBK039909], for which the viability at 28.5 h, 10 µM stood at 73.9%.

In the case of `COc1ccccc1C1(CCNCc2ccc3c(c2)OCO3)CCOC(C)(C)C1` (stereo not shown) [CBK265599G], the viability at 28.5 h, 10 µM amounted to 92.3%.

Turning to `CC(C)c1nn(C)c(N(C)C)c1CNCc1cscn1` [CBK304321C], the viability at 28.5 h, 10 µM worked out at 84.4%.

Consider `COc1nccnc1OC1CCN(CC2CCCCC2)CC1` [CBK084263], for which the viability at 28.5 h, 10 µM was found to be 96.2%.

Regarding `O=C(c1ccc(S(=O)(=O)N2CCCCC2)cc1)N1CCN(CCN2C(=O)c3cccc4cccc(c34)C2=O)CC1` [CBK262536], the viability at 28.5 h, 10 µM was 79.3%.

Take `Cc1ccnc(NCC2CCN(CC(=O)Nc3cc(C)no3)C2)c1` (stereo not shown) [CBK306121]: the viability at 28.5 h, 10 µM stood at 91.3%.

Turning to `c1cnn(CCNc2nc3nonc3nc2N2CCCCC2)c1` [CBK306740], the viability at 28.5 h, 10 µM was determined as 83.8%.

Take `COc1ccc(-c2cnc(Nc3ccc(N4CCOCC4)cc3)c3nccn23)cn1` [CBK091238]: the viability at 28.5 h, 10 µM worked out at 92%.

For the compound `c1ccc(OCCCCN2CCCC23CCc2[nH]c4ccccc4c2C3)cc1` (stereo not shown) [CBK092200T], the viability at 28.5 h, 10 µM is 89.8%.

On to `CN1CCC(N(CCO)CC2(c3ccc(Cl)cc3)CC2)CC1` [CBK282781], for which the viability at 28.5 h, 10 µM is 96.6%.

Take `Nc1ncc(-c2ccco2)nc1NC1CCOCC1` [CBK063806]: the viability at 28.5 h, 10 µM was 102%.

Take `CCN(CC)C(=O)c1cccc(NS(=O)(=O)c2cccc(C(=O)O)c2)c1` [CBK296943]: the viability at 28.5 h, 10 µM was 97.6%.

Take `COC(=O)CCc1ccc(S(=O)(=O)N2CCCN(Cc3c(-c4ccccc4)noc3C)CC2)cc1` [CBK063011]: the viability at 28.5 h, 10 µM was 97.3%.

For the compound `O=S(=O)(c1csc2ccccc12)N1CCOCC1` [CBK062401], the viability at 28.5 h, 10 µM is 90.7%.

`O=C(O)CCC(=O)N1CCN(c2ccc(C(=O)c3ccc(F)cc3)cc2)CC1` [CBK269119]: the viability at 28.5 h, 10 µM worked out at 112%.

Consider `O=C(NCC1(c2ccccc2)CCCC1)c1ccc(NC(=O)C2COc3ccccc3O2)cc1` (stereo not shown) [CBK266558], for which the viability at 28.5 h, 10 µM came out at 97.9%.

For `Cc1ccc(-c2nccnc2OCc2ccccn2)c(C)c1` [CBK106979], the viability at 28.5 h, 10 µM worked out at 90.7%.

Regarding `Cc1ccc(CN(c2ccc(C(=O)O)cc2)S(C)(=O)=O)cc1` [CBK287203], the viability at 28.5 h, 10 µM is 85%.

`CCN(CC)c1nc(Cl)c(C#N)c2c1CN(C)CC2` [CBK009140]: the viability at 28.5 h, 10 µM was 99.2%.

Take `CC(=O)Nc1ccc(OC(=O)CSc2nc(C)cc(-c3ccccc3)n2)cc1` [CBK268754]: the viability at 28.5 h, 10 µM amounted to 94.7%.

As to `CCN1CCN(C(=S)c2ccc(OCC(N)=O)c(OC)c2)CC1` [CBK269293], the viability at 28.5 h, 10 µM was 86.1%.

With `Cc1ccc(C(=O)Nc2ccc(C)nc2C)cn1` [CBK200289], the viability at 28.5 h, 10 µM was found to be 89.6%.

Consider `O=C(Cc1ccccn1)N1CCN(Cc2ccccc2)CC1` [CBK200174], for which the viability at 28.5 h, 10 µM stood at 103%.

Turning to `CCOc1nc(=O)c(C)cn1C1CC(O)C(CO)O1` (stereo not shown) [CBK201334], the viability at 28.5 h, 10 µM stood at 96.5%.

As to `Cc1c(S(=O)(=O)NC(C)CCCC(C)(C)O)sc2ccc(Cl)cc12` (stereo not shown) [CBK062467], the viability at 28.5 h, 10 µM was determined as 93.5%.

In the case of `O=C(CSc1nnc(-c2ccncc2)n1-c1ccccc1)N/N=C/c1c[nH]c2ccccc12` [CBK262776], the viability at 28.5 h, 10 µM amounted to 90.5%.

In the case of `COc1cccc(CC(=O)Nc2ncccc2O)c1` [CBK305047], the viability at 28.5 h, 10 µM turned out to be 95.3%.

On to `Cc1ccc(CN2CCN(Cc3ccc([N+](=O)[O-])cc3)CC2)cc1` [CBK263168], for which, where the note is “bulk resorufin, single well”, the viability at 28.5 h, 10 µM was 92.9%.

Consider `NS(=O)(=O)c1ccc(CNC(=O)c2ccccc2Nc2cccc(C(F)(F)F)c2)cc1` [CBK149579], for which the viability at 28.5 h, 10 µM amounted to 94.4%.

Turning to `CC(=O)N1CCC(O)(Cn2c(C3CC3)cc3cccnc32)CC1` [CBK283082], the viability at 28.5 h, 10 µM came out at 111%.

For `O=C(Nc1ccccc1)Nc1ccccc1C(=O)NCc1ccccc1` [CBK265338], the viability at 28.5 h, 10 µM was found to be 90.2%.

As to `Cc1nn(Cc2ccccn2)c(=O)n2cccc12` [CBK283849], the viability at 28.5 h, 10 µM amounted to 95.1%.

Consider `COc1ccc(S(=O)(=O)Nc2nccnc2-c2ccc3[nH]ccc3c2)cc1` [CBK050805], for which the viability at 28.5 h, 10 µM stood at 91.6%.

On to `O=C1Nc2ccc(-c3ccc4c(c3)OCO4)cc2C(=O)N2CCN(C(=O)CO)C[C@H]12` [CBK289593], for which the viability at 28.5 h, 10 µM amounted to 85.6%.

Regarding `O=C(CSc1nnc(-c2cc(Br)ccc2O)n1-c1ccccc1)N1CCc2ccccc21` [CBK268346], the viability at 28.5 h, 10 µM is 105%.

On to `CC(C)C(=O)N1C[C@@H](N(C)C)[C@H](c2cn(C)c3ccccc23)C1` [CBK282717], for which the viability at 28.5 h, 10 µM was 91.2%.

With `O=C(Nc1ccc(S(=O)(=O)N2CCCC2)cc1)C1CC(=O)N(Cc2ccco2)C1` (stereo not shown) [CBK297500], the viability at 28.5 h, 10 µM is 92.5%.

For the compound `CC(=O)N1CCN(Cc2oc(C)cc(=O)c2O)CC1` [CBK288383], the viability at 28.5 h, 10 µM was determined as 91.6%.

For `Nc1nonc1C(=O)NCCNC(=O)c1ccco1` [CBK058480], the viability at 28.5 h, 10 µM was 99.1%.

On to `CC1CN(C(=O)c2ccccc2-c2ccccc2C(=O)O)CC(C)O1` (stereo not shown) [CBK286577], for which the viability at 28.5 h, 10 µM was 87.7%.

For the compound `CCc1noc(C)c1C(=O)N1CCC(NC)C1` (stereo not shown) [CBK304299C], the viability at 28.5 h, 10 µM amounted to 100%.

`CN(C)CCNC(=O)Cn1c(-c2cccs2)cc2cccnc21` [CBK282555]: the viability at 28.5 h, 10 µM came out at 92.6%.
